Assay results reported in PubChem BioAssay (NCI).
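Tested at 5 concentrations; 48 h exposure; 96-well plates; endpoints linearly interpolated, else capped at highest concentration. At the TGI there is no net growth.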

Columns and labels:
Experiment in all cases: NCI-60 cell line screen, 48 h
MCF7 breast = tested on: MCF7 breast
786-0 renal = tested on: 786-0 renal
KM12 colon = tested on: KM12 colon
OVCAR-4 ovarian = tested on: OVCAR-4 ovarian
MDA-MB-231 breast = tested on: MDA-MB-231 breast
SF-268 CNS = tested on: SF-268 CNS
CCRF-CEM leukemia = tested on: CCRF-CEM leukemia
HCC-2998 colon = tested on: HCC-2998 colon
BT-549 breast = tested on: BT-549 breast
NCI/ADR-RES ovarian = tested on: NCI/ADR-RES ovarian
HOP-62 NSCLC = tested on: HOP-62 NSCLC
SNB-75 CNS = tested on: SNB-75 CNS
SK-MEL-5 melanoma = tested on: SK-MEL-5 melanoma
MDA-MB-435 = tested on: MDA-MB-435
NCI-H522 lung = tested on: NCI-H522 lung
HCT-116 colon = tested on: HCT-116 colon
SF-539 CNS = tested on: SF-539 CNS
TK-10 renal = tested on: TK-10 renal
PC-3 prostate = tested on: PC-3 prostate
MALME-3M melanoma = tested on: MALME-3M melanoma

SMILES	TGI (MCF7 breast) [µM]	TGI (786-0 renal) [µM]	TGI (KM12 colon) [µM]	TGI (OVCAR-4 ovarian) [µM]	TGI (MDA-MB-231 breast) [µM]	TGI (SF-268 CNS) [µM]	TGI (CCRF-CEM leukemia) [µM]	TGI (HCC-2998 colon) [µM]	TGI (BT-549 breast) [µM]	TGI (NCI/ADR-RES ovarian) [µM]	TGI (HOP-62 NSCLC) [µM]	TGI (SNB-75 CNS) [µM]	TGI (SK-MEL-5 melanoma) [µM]	TGI (MDA-MB-435) [µM]	TGI (NCI-H522 lung) [µM]	TGI (HCT-116 colon) [µM]	TGI (SF-539 CNS) [µM]	TGI (TK-10 renal) [µM]	TGI (PC-3 prostate) [µM]	TGI (MALME-3M melanoma) [µM]
CC1(C)C2CCC1(C)C(OC(=O)/C=C/C(=O)OC1CC3CCC1(C)C3(C)C)C2 (centres undefined)	67.4	> 100	> 100	> 100	> 100	> 100	31.1	> 100	> 100	> 100	> 100	86.6	> 100	> 100	> 100	> 100	> 100	> 100	> 100	
C/C=C/C=C\C=C/C(O)C(C)C(CCC(C)C1OC(=O)C=CC1C)OP(=O)(O)O (centres undefined)	0.559	1.51	1.16	2.86	> 71.1	2.03	0.625		0.591	2.88	0.786	2.85	1.84	0.773	2.89	0.717	1.7	1.91	0.549	0.641
O=C(O)c1ccccc1CC1Cc2cc3c(cc2C1)CCC3	> 100	> 100	> 100	> 100	> 100	> 100	> 100	> 100	> 100	> 100	> 100	> 100	> 100	> 100	> 100	> 100	> 100	> 100		> 100
Cc1ccc(OCC2OC(n3cnc4nc(Nc5ccc(Cl)c(Cl)c5)nc(Cl)c43)CC2Oc2ccc(C)cc2)cc1 (centres undefined)	> 100	> 100	> 100	> 100	> 100	> 100	> 100	> 100	> 100	> 100	> 100	> 100	> 100	> 100		> 100		> 100	> 100	> 100
CC[C@]12C=CCN3CCC4(c5cc([C@@]6(C(=O)OC)CC7CN(CCc8c6[nH]c6ccccc86)C[C@@H]6CCCC[C@H]76)c(OC)cc5N(C)C4[C@](O)(C(=O)OC)C1OC(C)=O)[C@@H]32 (some centres undefined)		12.5		19.3	< 0.01	16.5	> 37.1	< 0.01	21.2	0.0886	14.4		< 0.01		< 0.01	1.73	< 0.01	21.8	< 0.01	4.95
O=c1cc(NNCc2ccccc2)[nH]c(=O)[nH]1	> 100	> 100	> 100	> 100	> 100	> 100	> 100	> 100	> 100	> 100	> 100		> 100	> 100			> 100	> 100	> 100	> 100
CSc1nn(C)cc2ncnc1-2	> 100	> 100	> 100		> 100	> 100	> 100		> 100	> 100	> 100	64	> 100	> 100		> 100	> 100	> 100	> 100	
CCOC(=O)CC[C@H](NC(=O)N[C@H](C)c1ccccc1)C(=O)OCC	> 100	> 100	> 100	> 100	> 100		54.2	72.3	> 100	75.9	> 100		> 100	69.1		> 100	45.5	> 100	> 100	
CC(C)(C)C1CCC2c3c([nH]c4ccccc34)C3C(=O)N(c4ccccc4[N+](=O)[O-])C(=O)C3C2C1 (centres undefined)	39.1	28.9			27.2		53.1	18.2	68.5	> 100	21.5		26.7	> 100		22.7	61.3	43.3	26.1	43
O=[N+]([O-])c1cccc(-c2ncc3c(n2)-c2ccccc2C3)c1	> 100	> 100	> 100	> 100	> 100	> 100	> 100		> 100	> 100		> 100	> 100	> 100	> 100	> 100	> 100	> 100	> 100	> 100
O=c1[nH]c(N/N=C\C(=N/Nc2nc3ccccc3c(=O)[nH]2)C(O)C(O)C(O)CO)nc2ccccc12 (centres undefined)	> 100	> 100	> 100		> 100	> 100	> 100		> 100	> 100	> 100	> 100	> 100	> 100		> 100	> 100	> 100	> 100	
CC(=O)Nc1ccc(C(=O)NN2C(=O)CSC2c2ccc(O)cc2)cc1 (centres undefined)	> 100	> 100	> 100	> 100	> 100	> 100	> 100	> 100	> 100	> 100	> 100	> 100	> 100	> 100		> 100	> 100	> 100		
COc1cc2c(c(O)c1OC)C(=O)[C@@H]1CCC(=O)N1C2c1ccccc1 (some centres undefined)	> 100	> 100	> 100	> 100		> 100	> 100	> 100	> 100	> 100	> 100	> 100		> 100	> 100	> 100	> 100	> 100	> 100	> 100
